#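 Cells were grown in 96-well plates and exposed to each compound for 48 hours at five concentrations; endpoints were interpolated linearly between bracketing concentrations, or set to the highest concentration if not reached. The concentration for 50% growth inhibition is given as GI50.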 Calls of active or inactive are those of the source. No stated cut-off is given here; in the data, active = GI50 up to about 1.1 µM and inactive = higher.
# How the values were obtained:
# Assay in all cases: DTP human tumour cell line panel, 48 h
# [1] = tested on: BT-549
# [2] = tested on: CCRF-CEM
# [3] = tested on: HOP-92
# [4] = tested on: K562
# [5] = tested on: M14
# [6] = tested on: MDA-MB-231
# [7] = tested on: MDA-N
# [8] = tested on: NCI-H23
# [9] = tested on: SK-MEL-2
# [10] = tested on: SW-620
# [11] = tested on: T47D
# [12] = tested on: UACC-62
# [13] = tested on: ACHN
# [14] = tested on: NCI-H522
# [15] = tested on: OVCAR-3
# [16] = tested on: DU-145
# [17] = tested on: NCI/ADR-RES
# [18] = tested on: SF-268
Structure (SMILES),GI50 [1],GI50 [2],GI50 [3],GI50 [4],GI50 [5],GI50 [6],GI50 [7],GI50 [8],GI50 [9],GI50 [10],GI50 [11],GI50 [12],GI50 [13],GI50 [14],GI50 [15],GI50 [16],GI50 [17],GI50 [18]
CC(C)(C)OC(=O)NC(CCCCNC(=O)OCc1ccccc1)C(=O)NC(CCCCNC(=O)OCc1ccccc1)C(=O)ON1C(=O)CCC1=O (stereo not given),> 100 µM (inactive),> 100 µM (inactive),> 100 µM (inactive),> 100 µM (inactive),> 100 µM (inactive),> 100 µM (inactive),> 100 µM (inactive),> 100 µM (inactive),> 100 µM (inactive),> 100 µM (inactive),> 100 µM (inactive),> 100 µM (inactive),–,–,–,–,–,–
CCOC(=O)C(C(=O)OCC)S(C)(=O)=O,–,> 100 µM (inactive),> 100 µM (inactive),> 100 µM (inactive),> 100 µM (inactive),–,–,> 100 µM (inactive),> 100 µM (inactive),> 100 µM (inactive),–,> 100 µM (inactive),> 100 µM (inactive),> 100 µM (inactive),> 100 µM (inactive),–,–,–
OCCC/N=C1N=C(Cl)/C(=C\c2ccccc2)N\1,–,> 100 µM (inactive),> 100 µM (inactive),> 100 µM (inactive),> 100 µM (inactive),> 100 µM (inactive),> 100 µM (inactive),> 100 µM (inactive),–,> 100 µM (inactive),> 100 µM (inactive),–,> 100 µM (inactive),> 100 µM (inactive),–,> 100 µM (inactive),> 100 µM (inactive),> 100 µM (inactive)
CCOC(=O)C1=C(N2CCCC2)C(=O)C(C(=O)OCC)C1 (stereo not given),> 100 µM (inactive),–,> 100 µM (inactive),> 100 µM (inactive),> 100 µM (inactive),> 100 µM (inactive),> 100 µM (inactive),> 100 µM (inactive),> 100 µM (inactive),> 100 µM (inactive),> 100 µM (inactive),–,> 100 µM (inactive),> 100 µM (inactive),> 100 µM (inactive),–,> 100 µM (inactive),> 100 µM (inactive)
CCOCCOCCOCc1nc(C#N)c(N)o1,> 100 µM (inactive),> 100 µM (inactive),–,> 100 µM (inactive),> 100 µM (inactive),> 100 µM (inactive),–,> 100 µM (inactive),> 100 µM (inactive),> 100 µM (inactive),> 100 µM (inactive),> 100 µM (inactive),> 100 µM (inactive),93.1 µM (inactive),> 100 µM (inactive),> 100 µM (inactive),> 100 µM (inactive),> 100 µM (inactive)
Nc1cnc(Nc2cccc3ccccc23)o1,–,> 10 µM (inactive),–,> 10 µM (inactive),> 10 µM (inactive),> 10 µM (inactive),> 10 µM (inactive),> 10 µM (inactive),> 10 µM (inactive),> 10 µM (inactive),> 10 µM (inactive),> 10 µM (inactive),> 10 µM (inactive),> 10 µM (inactive),> 10 µM (inactive),> 10 µM (inactive),> 10 µM (inactive),> 10 µM (inactive)
O=c1c2nc[nH]c2n(-c2ccccc2)c(=S)n1-c1ccccc1,> 100 µM (inactive),> 100 µM (inactive),–,> 100 µM (inactive),> 100 µM (inactive),> 100 µM (inactive),–,> 100 µM (inactive),> 100 µM (inactive),> 100 µM (inactive),> 100 µM (inactive),> 100 µM (inactive),> 100 µM (inactive),> 100 µM (inactive),> 100 µM (inactive),> 100 µM (inactive),> 100 µM (inactive),> 100 µM (inactive)
CC(C)[C@@H]1CC[C@@H](C)C[C@H]1OC(=O)c1c2n(c3ccccc13)C[C@H]1OC(C)(C)O[C@@H]21,61.8 µM (inactive),4.22 µM (inactive),–,4.53 µM (inactive),22.9 µM (inactive),23 µM (inactive),19.7 µM (inactive),5.77 µM (inactive),> 100 µM (inactive),16.6 µM (inactive),15.2 µM (inactive),18 µM (inactive),8.22 µM (inactive),–,18.2 µM (inactive),20 µM (inactive),13.2 µM (inactive),19.2 µM (inactive)
CCOC(=O)C(NC(=O)Nc1ccc(Cl)c(Cl)c1)C(F)(F)F (stereo not given),45.2 µM (inactive),> 100 µM (inactive),–,92.5 µM (inactive),> 100 µM (inactive),–,> 100 µM (inactive),> 100 µM (inactive),63 µM (inactive),> 100 µM (inactive),> 100 µM (inactive),–,57.4 µM (inactive),–,–,–,> 100 µM (inactive),> 100 µM (inactive)
O=C(CC(NC(=O)OCc1ccccc1)C(=O)NC1Cc2ccccc2C1=O)OCc1ccccc1 (stereo not given),> 100 µM (inactive),–,–,> 100 µM (inactive),> 100 µM (inactive),–,> 100 µM (inactive),> 100 µM (inactive),> 100 µM (inactive),> 100 µM (inactive),–,> 100 µM (inactive),> 100 µM (inactive),> 100 µM (inactive),> 100 µM (inactive),> 100 µM (inactive),> 100 µM (inactive),> 100 µM (inactive)
O=C1C=CC2(C=C1)CCC(=O)O2,18.5 µM (inactive),5.82 µM (inactive),11.1 µM (inactive),10.7 µM (inactive),29.2 µM (inactive),10.1 µM (inactive),27.9 µM (inactive),14.2 µM (inactive),16.1 µM (inactive),11.6 µM (inactive),–,16.5 µM (inactive),15.2 µM (inactive),2.34 µM (inactive),13.2 µM (inactive),15.5 µM (inactive),32.9 µM (inactive),12.1 µM (inactive)
CN1CCN(Cn2nc(-c3ccccc3)n(/N=C/c3ccc(-c4ccc(Cl)cc4Cl)o3)c2=S)CC1,–,4.17 µM (inactive),8.95 µM (inactive),2.39 µM (inactive),10.8 µM (inactive),13.9 µM (inactive),13.4 µM (inactive),18.7 µM (inactive),20.7 µM (inactive),11.8 µM (inactive),15.5 µM (inactive),–,–,28.2 µM (inactive),11.7 µM (inactive),8.91 µM (inactive),16 µM (inactive),5.83 µM (inactive)
O=C1C2CCCCC2C(=O)N1n1c(Cc2ccc(Cl)cc2)n[nH]c1=O (stereo not given),> 100 µM (inactive),> 100 µM (inactive),> 100 µM (inactive),> 100 µM (inactive),> 100 µM (inactive),> 100 µM (inactive),> 100 µM (inactive),> 100 µM (inactive),> 100 µM (inactive),> 100 µM (inactive),> 100 µM (inactive),> 100 µM (inactive),> 100 µM (inactive),> 100 µM (inactive),> 100 µM (inactive),–,> 100 µM (inactive),> 100 µM (inactive)
C/C(=C\c1ccc(Cl)c(Cl)c1)[N+](=O)[O-],–,–,–,1.55 µM (inactive),0.738 µM (active),2.1 µM (inactive),–,2.26 µM (inactive),1.99 µM (inactive),0.986 µM (active),–,2.38 µM (inactive),1.98 µM (inactive),1.63 µM (inactive),1.65 µM (inactive),1.63 µM (inactive),3.41 µM (inactive),1.4 µM (inactive)
CNC(=O)Oc1ccc(C(=S)Nc2ccc(Br)cc2)cc1,17.1 µM (inactive),1.81 µM (inactive),–,14.1 µM (inactive),18.1 µM (inactive),–,22.2 µM (inactive),15.7 µM (inactive),17.7 µM (inactive),23.1 µM (inactive),18.5 µM (inactive),12.9 µM (inactive),24.4 µM (inactive),11.4 µM (inactive),19.7 µM (inactive),26.5 µM (inactive),17.6 µM (inactive),9.55 µM (inactive)
Cc1cccc(NS(=O)(=O)c2ccc3c(c2)OCCOCCOCCOCCO3)c1,> 100 µM (inactive),> 100 µM (inactive),–,> 100 µM (inactive),> 100 µM (inactive),> 100 µM (inactive),> 100 µM (inactive),> 100 µM (inactive),–,> 100 µM (inactive),43.5 µM (inactive),> 100 µM (inactive),> 100 µM (inactive),16.1 µM (inactive),–,> 100 µM (inactive),–,> 100 µM (inactive)
Nc1ccc2ccc(-c3ccc[nH]3)nc2n1,> 100 µM (inactive),–,> 100 µM (inactive),–,> 100 µM (inactive),> 100 µM (inactive),> 100 µM (inactive),> 100 µM (inactive),> 100 µM (inactive),> 100 µM (inactive),> 100 µM (inactive),–,> 100 µM (inactive),> 100 µM (inactive),> 100 µM (inactive),–,> 100 µM (inactive),> 100 µM (inactive)
COc1cccc(OC)c1NC(=O)C(=O)Nn1c(NNC(=O)c2ccncc2)nc2ccccc2c1=O,> 100 µM (inactive),> 100 µM (inactive),> 100 µM (inactive),> 100 µM (inactive),> 100 µM (inactive),> 100 µM (inactive),> 100 µM (inactive),> 100 µM (inactive),> 100 µM (inactive),> 100 µM (inactive),> 100 µM (inactive),> 100 µM (inactive),> 100 µM (inactive),> 100 µM (inactive),> 100 µM (inactive),–,> 100 µM (inactive),> 100 µM (inactive)

# Source: ChEMBL document CHEMBL1201862, “PubChem BioAssay data set” (2004)
